Test results as given in ChEMBL document CHEMBL1201862, “PubChem BioAssay data set” (2004).
Activity calls are given as the source filed them.

What was measured:
[1] = M. tuberculosis H37Rv growth inhibitors, H37Rv strain (AID 1626); type: functional
[2] = target: Galanin receptor type 2 (Homo sapiens, UniProt O43603); assay: Dose Response cell-based high-throughput screening assay to identify antagonists of galanin receptor 2 (GALR2). [Related pubchem assays: 828, 866 ]; type: functional
[3] = system: INS1; assay: INS-1E survival protection against cytokine death – cell-based, luminescence, retest, dose response (AID 449756); type: functional; details: Rattus norvegicus;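 also: cell death triggered by IL-1 beta plus TNF-alpha plus IFN-gamma mixture; protective hits raise ATP signal compared with cytokine alone wells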
[4] = Luminescence Cell-Based Dose Response to Identify Activators of Luciferase Translation or Activity in H4-C Neuroglioblastoma Cells. [Related pubchem assays: 1829 (Project Summary), 1814 (Primary HTS)]; type: functional
[5] = Luminescence Cell-Based Dose Response to Identify Activators of 5'UTR Stem-Loop Driven Prion Protein mRNA Translation in H4-C Neuroglioblastoma Cells. [Related pubchem assays: 1829 (Project Summary), 1814 (Primary HTS)]; type: functional
[6] = Luminescence Cell-Based Dose Response HTS to Identify Activators of Luciferase Translation or Activity in H4 […] Cells. [Related pubchem assays: 1829 (Project Summary), 1814 (Primary HTS)]; type: functional
[7] = Luminescence Cell-Based Dose Confirmation HTS to Identify Activators of 5'UTR Stem-Loop Driven Alpha-Synuclein mRNA Translation in H4 Neuroglioblastoma Cells. [Related pubchem assays: 1829 (Project Summary), 1814 (Primary HTS)]; type: functional
[8] = Luminescence Cell-Based Dose Confirmation to Identify Activators of 5'UTR Stem-Loop Driven Alpha-Synuclein mRNA Translation in H4 Neuroglioblastoma Cells. [Related pubchem assays: 1829 (Project Summary), 1814 (Primary HTS)]; type: functional
[9] = system: H4; assay: Luminescence Cell-Based Dose Response HTS to Identify Activators of 5'UTR Stem-Loop Driven Prion Protein mRNA Translation in H4 Neuroglioblastoma Cells. [Related pubchem assays: 1829 (Project Summary), 1814 (Primary HTS)]; type: functional; details: Homo sapiens
[10] = target: Voltage-gated inwardly rectifying potassium channel KCNH2 (Homo sapiens, UniProt Q12809); assay: concentration-dependent hERG rescue from blockers – cell-based, thallium flux, dose response (AID 2121); type: ADME
[11] = target: T1, Polyadenylate-binding protein 1 (Homo sapiens, UniProt P11940); assay: MLLE domain peptide-binding blockers, IC50 – biochemical, fluorescence polarization, FITC-PAM2 peptide, dose response (AID 602259); type: functional; details: read-out: IC50_Mean
[12] = target: T1, Polyadenylate-binding protein 1; assay: MLLE binding blockers, Cy5 peptide tracer – biochemical, fluorescence polarization, Cy5-PAM2 peptide, secondary, miRNA deadenylation inhibitor project, dose response (AID 602260); type: functional; details: read-out: IC50_Mean
[13] = target: Potassium voltage-gated channel subfamily KQT member 2 (Rattus norvegicus, UniProt O88943, W236L); assay: potentiation of rat KCNQ2 current – cell-based, automated electrophysiology, mechanism study for KCNQ2 potentiator project, dose response (AID 2603); type: functional
[14] = target: T2, Endoribonuclease toxin MazF (Escherichia coli K-12, UniProt P0AE70); assay: MazEF toxin-antitoxin RNase activation – biochemical, fluorescence, single-stranded RNA substrate, SAR follow-up (AID 588603); type: functional
T2 sequence (P0AE70 whole entry): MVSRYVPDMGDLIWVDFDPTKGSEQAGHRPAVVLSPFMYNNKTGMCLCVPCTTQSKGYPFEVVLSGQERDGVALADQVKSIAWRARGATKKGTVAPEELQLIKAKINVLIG

[15] = target: T2, Endoribonuclease toxin MazF; assay: SAR analysis of small molecule activators of the MazEF TA System via a fluorescence-based single-stranded RNase assay counterscreen. [Related pubchem assays (depositor defined):AID504720, AID504743]; type: functional
[16] = target: Peroxisome proliferator-activated receptor gamma/Nuclear receptor corepressor 2 (Homo sapiens, UniProt P37231+Q9Y618); assay: Counterscreen for NR2E3 inverse agonists: TR-FRET-based biochemical high throughput dose response assay to identify inverse agonists of the interaction between peroxisome proliferator-activated receptor gamma (PPARg) and nuclear receptor co-repressor 2 (NCOR2).; type: functional
[17] = target: Cytochrome P450 2C9 (Homo sapiens, UniProt P11712)
[18] = system: MEF; assay: SAR analysis of small molecule cytotoxicity of MazEF TA System activators in embryonic fibroblast (MEF) cells. [Related pubchem assays (depositor defined):AID504720, AID504743]; type: functional; details: Mus musculus
[19] = target: Photoreceptor-specific nuclear receptor (Homo sapiens, UniProt Q9Y5X4); assay: ligands suppressing NR2E3 nuclear receptor activity – biochemical, TR-FRET, dose response (AID 463256); type: functional
[20] = target: T2, Endoribonuclease toxin MazF; assay: activation of MazEF endoribonuclease cleavage – biochemical, fluorescence, single-stranded RNA substrate, uHTS hits, dose response (AID 588481); type: functional
[21] = target: T2, Endoribonuclease toxin MazF; assay: substrate-only fluorescence increase artefacts – biochemical, single-stranded RNase substrate, counter-screen for MazEF activator project, dose response (AID 588502); type: functional
[22] = target: Cytochrome P450 3A4 (Homo sapiens, UniProt P08684);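 also: CYP3A4 tested as one member of a cytochrome P450 panel screen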
[23] = antiviral protection against BTV-induced cell death – arbovirus, BSR cells, confirmation (AID 1250); type: functional;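 also: protection from viral cytopathic effect measured as cell viability by ATP luminescence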
[24] = mitochondrial function rescue without frataxin homolog – Friedreich's ataxia, plus single-dose screen, dose response (AID 1465); type: functional;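 also: yeast depleted of Yfh1p frataxin homolog grown on glycerol needing respiration; WST-1 tetrazolium dye reduction as measure of cellular dehydrogenase metabolic activity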
[25] = target: Matrix metalloproteinase-14 (Homo sapiens, UniProt P50281); assay: Dose Response confirmation of uHTS hits for a small molecule inhibitors of MT1-MMP activation in a fluorescence assay set 1.; type: functional
[26] = target: Beta-galactosidase (Escherichia coli, UniProt Q8VNN2); type: functional
[27] = target: T3, Rac GTPase-activating protein 1 (Homo sapiens, UniProt Q9H0H5); assay: blockers of MgcRacGAP-driven Rac1 GTP hydrolysis – biochemical, ADP Hunter fluorescence, primary and confirmatory, confirmation (AID 624330); type: functional
T3 sequence (Q9H0H5 whole entry): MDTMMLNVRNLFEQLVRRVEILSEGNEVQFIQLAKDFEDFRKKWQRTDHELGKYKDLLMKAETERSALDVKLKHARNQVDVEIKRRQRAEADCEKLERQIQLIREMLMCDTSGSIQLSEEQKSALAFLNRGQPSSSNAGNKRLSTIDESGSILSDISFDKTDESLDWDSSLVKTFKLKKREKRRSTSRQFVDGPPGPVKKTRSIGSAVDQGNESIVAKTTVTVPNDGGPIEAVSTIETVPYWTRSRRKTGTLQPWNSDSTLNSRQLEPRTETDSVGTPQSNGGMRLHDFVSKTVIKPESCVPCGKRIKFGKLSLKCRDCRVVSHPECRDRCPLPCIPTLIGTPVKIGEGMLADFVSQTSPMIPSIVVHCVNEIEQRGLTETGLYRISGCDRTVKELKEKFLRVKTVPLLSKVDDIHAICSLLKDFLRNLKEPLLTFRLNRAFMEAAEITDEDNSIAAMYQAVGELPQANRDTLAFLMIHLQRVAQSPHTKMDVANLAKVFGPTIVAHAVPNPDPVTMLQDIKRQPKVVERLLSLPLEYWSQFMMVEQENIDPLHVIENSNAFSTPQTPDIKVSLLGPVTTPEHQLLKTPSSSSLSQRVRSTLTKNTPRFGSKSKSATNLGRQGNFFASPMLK

[28] = viability loss in HeLa cells – cytotoxicity control for MgcRacGAP inhibitor project, dose response (AID 624300); type: functional
[29] = target: T4, Kappa-type opioid receptor (Homo sapiens, UniProt P41145); type: functional
[30] = target: T4, Kappa-type opioid receptor; type: functional; remark: listed apart in the source
[31] = Luminescent dose response cell-based high throughput screening assay for inhibitors of the Janus kinase 2 mutant JAK2V617F. [Related pubchem assays: 1446 (Primary screen.), 1521 (Confirmation assay.), 1486 (Counter screen.)]; type: functional
[32] = target: Sphingosine 1-phosphate receptor 4 (Homo sapiens, UniProt O95977); assay: Fluorescence dose response cell-based high throughput screening assay for antagonists of the Sphingosine 1-Phosphate Receptor 4 (S1P4). [Related pubchem assays: 1524 (Confirmation in triplicates.), 1510 (Primary screen.)]; type: functional
[33] = reduced cellular PGC1a acetyl-lysine signal – cell-based, cherry-picked samples, dose response (AID 720514); type: functional;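 also: potency may reflect raised or lowered acetylation signal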
[34] = target: Sphingosine 1-phosphate receptor 1 (Homo sapiens, UniProt P21453); type: functional;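 also: Tango beta-arrestin reporter U2OS cells stimulated with S1P near its EC80; inhibitor potency meaning antagonism of receptor activation by the natural agonist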
[35] = system: Vero; assay: cells; type: functional; details: Chlorocebus sabaeus
[36] = target: T5, Hepatocyte nuclear factor 4-alpha (Homo sapiens, UniProt P41235); type: functional, cell-based;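 also: biochemical luminescence-based dose-response counterscreen measuring inhibition of HNF4 dimerization, run alongside a screen for blockers of ABHD5–perilipin-5 interaction; split luciferase complementation of HNF4 fusion proteins in cell lysate measuring dimerization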
T5 sequence (P41235 whole entry): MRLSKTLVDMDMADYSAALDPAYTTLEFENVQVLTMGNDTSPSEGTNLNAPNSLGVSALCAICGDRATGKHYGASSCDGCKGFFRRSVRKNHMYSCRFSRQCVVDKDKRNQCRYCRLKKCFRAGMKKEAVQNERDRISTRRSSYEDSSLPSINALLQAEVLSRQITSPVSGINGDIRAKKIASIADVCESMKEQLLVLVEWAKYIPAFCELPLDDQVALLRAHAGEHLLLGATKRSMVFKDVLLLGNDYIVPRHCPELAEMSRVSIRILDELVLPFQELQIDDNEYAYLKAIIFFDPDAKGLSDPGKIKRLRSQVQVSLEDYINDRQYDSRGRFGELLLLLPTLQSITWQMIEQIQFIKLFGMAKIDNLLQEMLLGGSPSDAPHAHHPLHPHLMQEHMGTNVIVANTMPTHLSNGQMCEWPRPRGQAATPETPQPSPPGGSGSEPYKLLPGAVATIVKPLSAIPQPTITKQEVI

[37] = target: Sphingosine 1-phosphate receptor 2 (Homo sapiens, UniProt O95136); assay: Dose Response Cell Based Assay for Agonists of the S1P2 Receptor of Purchased Analogues. [Related pubchem assays: 729, 843, 854, 736 ]; type: functional
[38] = target: Mucolipin-3 (Homo sapiens, UniProt Q8TDD5); assay: Dose response cell-based high-throughput screening assay for agonists of the transient receptor potential channel ML3 (TRPML3). [Related pubchem assays: 1526, 1424, 1448 ]; type: functional
[39] = target: Ion channel NompC (Danio rerio, UniProt Q7T1G6); assay: Fluorescence counterscreen assay for TRPML3 agonists: dose response cell-based high-throughput screening assay to identify agonists of the transient receptor potential channel N1 (TRPN1). [Related pubchem assays: 1526, 1424, 1448 ]; type: functional
[40] = target: T6, Estrogen receptor (Homo sapiens, UniProt P03372); assay: ERα coactivator recruitment enhancers – biochemical, TR-FRET, ERα LBD, dose response (AID 737)
T6 sequence (P03372 whole entry): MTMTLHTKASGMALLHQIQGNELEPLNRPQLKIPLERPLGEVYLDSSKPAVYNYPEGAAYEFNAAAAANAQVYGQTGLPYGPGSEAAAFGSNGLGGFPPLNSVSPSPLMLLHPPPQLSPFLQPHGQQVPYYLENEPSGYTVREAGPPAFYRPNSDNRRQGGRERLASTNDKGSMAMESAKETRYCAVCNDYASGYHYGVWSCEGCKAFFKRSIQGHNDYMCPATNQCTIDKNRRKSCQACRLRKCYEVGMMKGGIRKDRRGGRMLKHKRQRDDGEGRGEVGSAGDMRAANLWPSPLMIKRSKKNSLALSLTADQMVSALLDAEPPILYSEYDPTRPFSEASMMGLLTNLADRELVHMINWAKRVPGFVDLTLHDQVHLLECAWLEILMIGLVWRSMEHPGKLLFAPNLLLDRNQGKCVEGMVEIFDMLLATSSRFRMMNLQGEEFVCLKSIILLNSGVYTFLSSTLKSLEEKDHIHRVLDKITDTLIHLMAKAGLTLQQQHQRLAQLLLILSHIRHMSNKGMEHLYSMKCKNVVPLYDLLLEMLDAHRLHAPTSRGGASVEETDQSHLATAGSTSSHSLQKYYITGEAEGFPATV

T4 sequence (P41145 whole entry): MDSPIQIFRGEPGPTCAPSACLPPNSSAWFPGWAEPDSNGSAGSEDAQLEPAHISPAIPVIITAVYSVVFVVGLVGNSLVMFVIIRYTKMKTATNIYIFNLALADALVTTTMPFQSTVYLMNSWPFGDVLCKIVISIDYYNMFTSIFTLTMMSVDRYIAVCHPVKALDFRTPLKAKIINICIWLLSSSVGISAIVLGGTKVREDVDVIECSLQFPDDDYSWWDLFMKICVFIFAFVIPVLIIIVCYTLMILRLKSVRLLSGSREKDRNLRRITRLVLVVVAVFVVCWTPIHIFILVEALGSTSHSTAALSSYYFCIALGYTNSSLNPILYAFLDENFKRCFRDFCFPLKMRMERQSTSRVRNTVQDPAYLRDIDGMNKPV
T1 sequence (P11940 whole entry, the tested form may be a part): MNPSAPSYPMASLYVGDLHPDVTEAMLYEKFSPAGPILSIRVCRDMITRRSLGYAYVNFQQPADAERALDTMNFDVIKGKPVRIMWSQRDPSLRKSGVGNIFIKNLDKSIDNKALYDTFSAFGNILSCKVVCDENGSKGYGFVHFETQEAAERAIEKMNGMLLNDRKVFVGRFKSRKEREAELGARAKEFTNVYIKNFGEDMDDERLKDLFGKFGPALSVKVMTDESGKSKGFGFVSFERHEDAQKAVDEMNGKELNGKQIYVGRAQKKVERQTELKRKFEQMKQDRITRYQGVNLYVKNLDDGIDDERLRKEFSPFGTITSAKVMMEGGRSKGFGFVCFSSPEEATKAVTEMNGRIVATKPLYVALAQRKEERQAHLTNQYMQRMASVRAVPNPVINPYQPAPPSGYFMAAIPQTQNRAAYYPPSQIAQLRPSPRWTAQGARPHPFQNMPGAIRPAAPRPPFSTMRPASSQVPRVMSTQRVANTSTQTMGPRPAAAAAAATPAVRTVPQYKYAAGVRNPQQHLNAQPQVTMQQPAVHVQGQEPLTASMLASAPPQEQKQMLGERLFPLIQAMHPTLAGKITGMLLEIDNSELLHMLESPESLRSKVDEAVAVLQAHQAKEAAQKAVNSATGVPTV
Chain of Ion channel NompC (Q7T1G6 whole entry, the tested form may be a part): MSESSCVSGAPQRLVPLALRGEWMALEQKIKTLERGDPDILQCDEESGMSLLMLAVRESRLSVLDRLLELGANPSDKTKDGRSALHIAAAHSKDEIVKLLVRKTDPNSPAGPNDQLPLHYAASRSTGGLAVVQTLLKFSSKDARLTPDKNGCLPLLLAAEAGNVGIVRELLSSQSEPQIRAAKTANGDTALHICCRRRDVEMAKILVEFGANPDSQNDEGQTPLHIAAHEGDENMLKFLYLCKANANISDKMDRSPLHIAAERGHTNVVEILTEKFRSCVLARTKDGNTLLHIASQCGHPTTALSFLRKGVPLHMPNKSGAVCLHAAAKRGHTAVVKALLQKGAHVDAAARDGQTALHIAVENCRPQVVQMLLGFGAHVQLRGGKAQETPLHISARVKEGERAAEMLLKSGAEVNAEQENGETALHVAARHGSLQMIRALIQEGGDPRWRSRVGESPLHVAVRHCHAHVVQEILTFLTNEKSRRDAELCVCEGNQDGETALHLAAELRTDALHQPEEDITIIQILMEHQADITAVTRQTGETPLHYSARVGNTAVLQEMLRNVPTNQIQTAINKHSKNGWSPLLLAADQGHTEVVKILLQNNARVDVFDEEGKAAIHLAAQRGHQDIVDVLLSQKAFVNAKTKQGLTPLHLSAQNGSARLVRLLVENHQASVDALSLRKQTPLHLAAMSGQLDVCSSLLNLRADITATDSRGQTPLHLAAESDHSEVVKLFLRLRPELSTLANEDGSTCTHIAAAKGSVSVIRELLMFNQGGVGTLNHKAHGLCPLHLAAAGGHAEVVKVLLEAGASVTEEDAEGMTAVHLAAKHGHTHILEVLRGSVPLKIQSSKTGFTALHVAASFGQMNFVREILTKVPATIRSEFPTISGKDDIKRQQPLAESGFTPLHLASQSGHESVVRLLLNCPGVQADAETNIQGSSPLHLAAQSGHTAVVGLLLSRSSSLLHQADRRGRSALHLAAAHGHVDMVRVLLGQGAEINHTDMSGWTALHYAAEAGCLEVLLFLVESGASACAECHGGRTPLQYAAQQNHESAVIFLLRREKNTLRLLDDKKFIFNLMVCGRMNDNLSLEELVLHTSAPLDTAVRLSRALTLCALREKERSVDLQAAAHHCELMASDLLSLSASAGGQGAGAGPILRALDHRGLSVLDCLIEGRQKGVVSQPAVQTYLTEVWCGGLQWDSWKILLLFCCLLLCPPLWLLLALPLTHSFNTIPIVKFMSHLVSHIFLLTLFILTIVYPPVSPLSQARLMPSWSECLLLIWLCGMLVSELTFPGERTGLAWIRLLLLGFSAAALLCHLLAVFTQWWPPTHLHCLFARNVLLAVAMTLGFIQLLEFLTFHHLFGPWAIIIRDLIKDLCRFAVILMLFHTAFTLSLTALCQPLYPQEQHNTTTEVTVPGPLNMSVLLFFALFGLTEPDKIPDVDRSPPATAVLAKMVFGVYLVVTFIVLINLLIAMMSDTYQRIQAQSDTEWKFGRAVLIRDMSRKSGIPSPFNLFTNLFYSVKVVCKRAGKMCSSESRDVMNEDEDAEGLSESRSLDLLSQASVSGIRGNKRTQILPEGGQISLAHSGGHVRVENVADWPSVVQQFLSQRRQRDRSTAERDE
Chain of Voltage-gated inwardly rectifying potassium channel KCNH2 (Q12809 whole entry, the tested form may be a part): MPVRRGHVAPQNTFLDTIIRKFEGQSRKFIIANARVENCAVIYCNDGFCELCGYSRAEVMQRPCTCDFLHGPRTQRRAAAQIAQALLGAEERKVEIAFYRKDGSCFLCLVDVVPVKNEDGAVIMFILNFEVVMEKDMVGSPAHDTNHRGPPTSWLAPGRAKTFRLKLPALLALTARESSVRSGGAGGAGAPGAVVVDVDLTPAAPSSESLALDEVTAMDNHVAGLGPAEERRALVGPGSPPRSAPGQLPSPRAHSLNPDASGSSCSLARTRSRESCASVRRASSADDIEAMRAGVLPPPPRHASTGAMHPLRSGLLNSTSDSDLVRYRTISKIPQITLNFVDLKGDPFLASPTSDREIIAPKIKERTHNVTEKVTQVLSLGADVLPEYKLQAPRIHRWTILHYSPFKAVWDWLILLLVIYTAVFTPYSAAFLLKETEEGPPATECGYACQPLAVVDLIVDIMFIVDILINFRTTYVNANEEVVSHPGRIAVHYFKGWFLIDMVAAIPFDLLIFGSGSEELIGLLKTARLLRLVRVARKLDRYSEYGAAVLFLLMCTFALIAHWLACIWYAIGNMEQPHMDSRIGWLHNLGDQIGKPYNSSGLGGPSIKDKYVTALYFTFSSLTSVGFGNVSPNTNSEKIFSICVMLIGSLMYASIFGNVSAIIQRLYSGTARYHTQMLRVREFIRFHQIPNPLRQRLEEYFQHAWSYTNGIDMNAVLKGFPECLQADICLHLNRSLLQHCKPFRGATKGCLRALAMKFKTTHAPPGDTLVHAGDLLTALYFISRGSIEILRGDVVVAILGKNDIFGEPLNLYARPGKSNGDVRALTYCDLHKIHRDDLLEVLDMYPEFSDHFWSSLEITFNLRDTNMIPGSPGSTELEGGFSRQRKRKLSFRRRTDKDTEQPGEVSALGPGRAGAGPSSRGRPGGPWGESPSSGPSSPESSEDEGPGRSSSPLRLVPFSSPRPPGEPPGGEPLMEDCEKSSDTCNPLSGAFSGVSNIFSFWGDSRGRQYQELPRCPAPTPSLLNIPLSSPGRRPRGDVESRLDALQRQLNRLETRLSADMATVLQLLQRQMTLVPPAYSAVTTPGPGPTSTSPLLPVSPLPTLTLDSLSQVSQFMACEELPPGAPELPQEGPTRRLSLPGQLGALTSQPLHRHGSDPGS
Chain of Potassium voltage-gated channel subfamily KQT member 2 (O88943 whole entry W236L): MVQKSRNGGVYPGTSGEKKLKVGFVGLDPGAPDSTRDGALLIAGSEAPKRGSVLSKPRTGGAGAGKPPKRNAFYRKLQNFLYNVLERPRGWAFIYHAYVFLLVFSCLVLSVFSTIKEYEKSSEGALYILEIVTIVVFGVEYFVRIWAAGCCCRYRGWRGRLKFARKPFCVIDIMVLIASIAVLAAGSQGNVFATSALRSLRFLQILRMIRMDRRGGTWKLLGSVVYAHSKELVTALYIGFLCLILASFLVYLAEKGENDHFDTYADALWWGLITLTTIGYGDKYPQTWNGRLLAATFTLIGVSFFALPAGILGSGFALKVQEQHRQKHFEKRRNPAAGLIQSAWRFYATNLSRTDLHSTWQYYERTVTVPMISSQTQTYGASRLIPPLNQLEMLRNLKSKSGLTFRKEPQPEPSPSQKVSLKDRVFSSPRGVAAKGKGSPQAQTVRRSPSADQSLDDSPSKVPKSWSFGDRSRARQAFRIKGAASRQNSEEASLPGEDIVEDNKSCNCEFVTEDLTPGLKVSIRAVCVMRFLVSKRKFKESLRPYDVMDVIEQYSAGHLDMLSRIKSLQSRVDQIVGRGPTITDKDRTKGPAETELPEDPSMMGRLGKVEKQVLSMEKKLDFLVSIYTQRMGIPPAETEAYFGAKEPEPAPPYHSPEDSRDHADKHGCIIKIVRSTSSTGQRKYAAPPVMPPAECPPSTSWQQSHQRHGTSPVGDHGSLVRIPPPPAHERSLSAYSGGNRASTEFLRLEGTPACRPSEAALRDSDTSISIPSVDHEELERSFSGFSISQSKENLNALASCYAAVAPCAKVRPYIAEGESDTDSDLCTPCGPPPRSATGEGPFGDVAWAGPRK
Chain of Sphingosine 1-phosphate receptor 1 (P21453 whole entry): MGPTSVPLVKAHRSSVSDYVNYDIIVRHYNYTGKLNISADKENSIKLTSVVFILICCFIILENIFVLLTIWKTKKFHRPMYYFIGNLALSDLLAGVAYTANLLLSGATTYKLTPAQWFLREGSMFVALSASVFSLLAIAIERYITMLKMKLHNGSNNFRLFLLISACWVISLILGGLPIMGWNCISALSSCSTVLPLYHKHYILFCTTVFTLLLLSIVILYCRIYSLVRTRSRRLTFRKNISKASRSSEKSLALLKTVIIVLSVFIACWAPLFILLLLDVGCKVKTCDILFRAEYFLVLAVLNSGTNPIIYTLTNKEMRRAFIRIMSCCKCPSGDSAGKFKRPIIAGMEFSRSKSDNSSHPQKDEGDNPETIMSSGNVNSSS

COc1ccc(NCN2C(=O)CCC2=O)cc1
IC50 [1]: > 100 µM (active)

CCOC(=O)N1CCN(c2[nH]cnc3c4cc(F)ccc4nc2-3)CC1
IC50 [2]: 45.6 µM (not active) | AC50 [3]: 5.61 µM (active)

CC1CCCCN1CCCNC(=O)c1ccc2nc(N3CCCCC3)sc2c1 (stereo unspecified)
EC50 [4]: 0.397 µM (active) | EC50 [5]: 0.994 µM (active) | EC50 [6]: < 0.1 µM (active) | EC50 [7]: 0.177 µM (active) | EC50 [8]: 0.593 µM (active) | EC50 [9]: 15.1 µM (active)

Cc1ccc(S(=O)(=O)N=C(S)NC2CCCCC2)cc1
EC50 [10]: 9.12 µM (active) | IC50 [11]: > 66 µM (inactive) | IC50 [12]: > 66 µM (inactive)

Cc1nc(C)c(-c2csc(Nc3ccccn3)n2)s1
EC50 [13]: 115 µM (active)

O=C(CSc1nc(-c2ccccc2)nc2ccccc12)Nc1nccs1
EC50 [14]: 29.1 µM (inactive) | EC50 [15]: > 99 µM (inactive) | IC50 [16]: > 39.8 µM (not active) | AC50 [17]: 0.631 µM (inconclusive) | CC50 [18]: 29.7 µM (active) | IC50 [19]: 5.93 µM (active) | EC50 [20]: 20.7 µM (inactive) | EC50 [21]: 45 µM (inactive) | AC50 [22]: 1 µM (inconclusive)

Cc1ccc(C2C=C(c3ccc4c(c3)OCO4)Nc3ncnn32)cc1 (stereo unspecified)
IC50 [23]: 38.9 µM (active)

CC1=NN(c2ccccc2)C(=O)/C1=C/C=C/C=C/N(C)C
EC50 [24]: > 100 µM (active) | IC50 [25]: 23.3 µM (inactive) | EC50 [26]: 14.8 µM (active) | IC50 [27]: 68.1 µM (active) | CC50 [28]: 100 µM (active) | IC50 [29]: > 32 µM | IC50 [30]: 21.6 µM (inactive)

c1ccc2c(CN3CCCCCC3)c[nH]c2c1
IC50 [31]: 0.702 µM (active) | AC50 [3]: 4.09 µM (active)

O=C(/C=C/c1ccccc1)CC(O)(c1ccccc1)C(F)(F)C(F)F (stereo unspecified)
IC50 [32]: 1.7 µM (active) | AC50 [33]: 12.4 µM (active) | IC50 [34]: 30.6 µM (not active) | CC50 [35]: 17.5 µM (active) | IC50 [36]: 2.27 µM (active)

Cc1cc(C(=O)COC(=O)CN2C(=O)C3CCCCC3C2=O)c(C)n1Cc1ccccc1 (stereo unspecified)
EC50 [37]: > 30 µM (not active)

CSc1nc2ccccc2nc1N(C)S(=O)(=O)c1ccc(C)cc1
EC50 [38]: > 29.9 µM (not active) | EC50 [39]: > 29.9 µM (not active)

CCc1nnc2sc(-c3ccc(NC(=O)c4ccc5c(c4)OCCO5)cc3)nn12
EC50 [40]: 32.2 µM (not active)
